Assay results taken from article PMC7177946, “Effect of Ferulic Acid, a Phenolic Inducer of Fungal Laccase, on 26S Proteasome Activities In Vitro” (International Journal of Molecular Sciences, 2020).

Assays:
[1] = molecular target: T1, human 26S proteasome, chymotrypsin-like (CHTL) site, β5 subunit (Homo sapiens, UniProt P28074); test: fluorogenic peptidase assay, Suc-LLVY-AMC; format: biochemical; conditions: read-out: % inhibition at 1 mM
T1 construct: gene PSMB5; commercial purified 26S complex (BostonBiochem); beta subunits mature with N-terminal Thr; with Proteasome subunit beta type-7; Proteasome subunit beta type-6
T1 sequence (P28074 60-263): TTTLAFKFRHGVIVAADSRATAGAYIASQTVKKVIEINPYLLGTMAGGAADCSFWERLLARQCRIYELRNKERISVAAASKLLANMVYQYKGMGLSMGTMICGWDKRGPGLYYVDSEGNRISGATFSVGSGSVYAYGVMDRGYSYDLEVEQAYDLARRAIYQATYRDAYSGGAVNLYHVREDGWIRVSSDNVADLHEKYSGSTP

[2] = molecular target: T2, human 26S proteasome, trypsin-like (TL) site, β2 subunit (Homo sapiens, UniProt Q99436); test: fluorogenic peptidase assay, Z-GGR-AMC; format: biochemical; conditions: read-out: % inhibition at 1 mM
T2 construct: gene PSMB7; commercial purified 26S complex (BostonBiochem); beta subunits mature with N-terminal Thr; with Proteasome subunit beta type-5; Proteasome subunit beta type-6
T2 sequence (Q99436 44-277): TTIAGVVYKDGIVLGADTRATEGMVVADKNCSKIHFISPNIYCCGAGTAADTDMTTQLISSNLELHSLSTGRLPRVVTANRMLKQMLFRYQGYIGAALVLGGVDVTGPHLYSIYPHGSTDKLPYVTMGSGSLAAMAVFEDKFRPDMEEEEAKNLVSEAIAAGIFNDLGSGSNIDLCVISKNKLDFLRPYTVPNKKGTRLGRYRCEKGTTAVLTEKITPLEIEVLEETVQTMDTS

inhibition at 1000 µM [1]: 31% | inhibition at 1000 µM [2]: 30%
SMILES: COc1cc(/C=C/C(=O)O)ccc1O [ferulic acid, 4-hydroxy-3-methoxycinnamic acid]
